We go through four molecules from patent US20060018872A1, “Poly(lactic acid) copolymer hydrogels and related methods of drug delivery” (priority 2004, published 2006).

For orientation: solubility means the dissolved amount per volume that the medium holds. Read a high solubility as a readily soluble substance.

For series [1] the following is noted: cited from earlier work.
A short description of series [2]: physchem. The text has this:
The use of thermo-reversible triblock gels (Pluronics) as delivery agents for anti-inflammatories (naproxen and indomethacin), local anesthetics, and anti-cancer agents has been studied (Sharma, P. K. and Bhatia, S. R. Effect of Anti-Inflammatories on Pluronic® F127: Micellar Assembly, Gelation and Partitioning. Int J Pharmaceutics, in press, 2004). An ultraviolet spectroscopy technique has been developed to measure rapidly the solubility and micelle-water partition coefficients of hydrophobic pharmaceuticals in micellar gels and has been applied to PLA-PEO-PLA hydrogels. In addition to evaluating partitioning, release kinetics in PLA-PEO-PLA systems have also been studied.

The nature of series [3]: Release kinetics of pharmaceuticals from PLA-PEO-PLA gels at 25° C. It counts as physicochemical. The following applies: both polymers (1L and 2D/L), FIG. 7A.

≈ marks a conversion by molar mass, not a printed value. Where a name gives a salt, the structure may show the parent alone.

As for `CC1=C(CC(=O)O)c2cc(F)ccc2/C1=C\c1ccc([S+](C)[O-])cc1` (centres unmarked) [sulindac], the “time of complete release” value in series [1] (from poly(styrene-divinylbenzene) microspheres) was 24 h.
On to `COc1ccc2c(c1)c(CC(=O)O)c(C)n2C(=O)c1ccc(Cl)cc1` [Indomethacin, indomethacin], for which, in series [2], the micelle-water partition coefficient is given as 108±8. Moreover, the concentration in solution in series [2] (water) (solubility) came to 25 µg/mL (≈ 69.9 µM).
With `CCCCNc1ccc(C(=O)OCCN(C)C)cc1` [tetracaine hydrochloride], the release behavior entry in series [1] (from poly(DL-lactic-co-glycolic acid)) is given as “burst release”.
Turning to `COC(=O)c1ccc(O)cc1` [methyl paraben], the “release of methyl paraben from PLA-PEO-PLA gels” value in series [3] is “majority of the methyl paraben being quickly released within the first five hours”.
